Patent publication US8222260B2, “Substituted 6-anilinopurine derivatives as inhibitors of cytokinin oxidase/dehydrogenase and preparations containing these derivatives” (Univerzita Palackego V Olomouci, priority 2007, dated 2012)
Read-outs that look alike come from different tables or passages of the source. Blank lines part the entries; values can stand above or below the compound they belong to.

How the values were obtained:
[1] = tested on: Rat C6 glioma (ATCC No. CCL107); assay: Anti-inflammatory activity: isoproterenol-induced cAMP synthesis (ELISA); assay type: cell-based; conditions: cAMP after 30 min, induced by (−)-isoproterenol; for IC50: Rattus norvegicus, C6 glioma, 0.5 h, read-out: I50
Procedure: Anti-inflammatory activity of several of the substituted 6-anilinopurine derivatives of this invention was determined; kinetin was also evaluated as a control. Rat C6 glioma (ATCC No. CCL107) was cultivated in monolayer in serum-free chemically defined medium containing Ham's F10/minimal essential medium (1:1 v/v), 2 mM L-glutamine, 1% (v/v) minimal essential medium vitamins (100×), 1% (v/v) minimal essential medium nonessential amino acids (100×), 100 U/ml penicillin, […], and 30 nM sodium selenite. Incubation was performed at 37° C. in a 100% humidified atmosphere. The assays were performed in the logarithmic growth phase at a density of 2.5×10^5 cells/cm^2. Intracellular cAMP synthesis was induced by addition of 5 mM (−)-isoproterenol; various amounts of test compounds were added at the same time as the (−)-isoproterenol. After 30 min incubation, the cellular amount of cAMP was determined using ELISA (cAMP-enzyme immunoassay kit from Amersham). The I50 values were determined from the dose-response curve in duplicate.

AHK3 = target: T1, AHK3 (Arabidopsis thaliana, UniProt Q9C5U1); assay: Activation of cytokinin receptors (E. coli KMI001 beta-galactosidase reporter); assay type: cell-based; conditions: 28 h incubation; n.a. means no activation
T1 sequence (Q9C5U1 1-1036): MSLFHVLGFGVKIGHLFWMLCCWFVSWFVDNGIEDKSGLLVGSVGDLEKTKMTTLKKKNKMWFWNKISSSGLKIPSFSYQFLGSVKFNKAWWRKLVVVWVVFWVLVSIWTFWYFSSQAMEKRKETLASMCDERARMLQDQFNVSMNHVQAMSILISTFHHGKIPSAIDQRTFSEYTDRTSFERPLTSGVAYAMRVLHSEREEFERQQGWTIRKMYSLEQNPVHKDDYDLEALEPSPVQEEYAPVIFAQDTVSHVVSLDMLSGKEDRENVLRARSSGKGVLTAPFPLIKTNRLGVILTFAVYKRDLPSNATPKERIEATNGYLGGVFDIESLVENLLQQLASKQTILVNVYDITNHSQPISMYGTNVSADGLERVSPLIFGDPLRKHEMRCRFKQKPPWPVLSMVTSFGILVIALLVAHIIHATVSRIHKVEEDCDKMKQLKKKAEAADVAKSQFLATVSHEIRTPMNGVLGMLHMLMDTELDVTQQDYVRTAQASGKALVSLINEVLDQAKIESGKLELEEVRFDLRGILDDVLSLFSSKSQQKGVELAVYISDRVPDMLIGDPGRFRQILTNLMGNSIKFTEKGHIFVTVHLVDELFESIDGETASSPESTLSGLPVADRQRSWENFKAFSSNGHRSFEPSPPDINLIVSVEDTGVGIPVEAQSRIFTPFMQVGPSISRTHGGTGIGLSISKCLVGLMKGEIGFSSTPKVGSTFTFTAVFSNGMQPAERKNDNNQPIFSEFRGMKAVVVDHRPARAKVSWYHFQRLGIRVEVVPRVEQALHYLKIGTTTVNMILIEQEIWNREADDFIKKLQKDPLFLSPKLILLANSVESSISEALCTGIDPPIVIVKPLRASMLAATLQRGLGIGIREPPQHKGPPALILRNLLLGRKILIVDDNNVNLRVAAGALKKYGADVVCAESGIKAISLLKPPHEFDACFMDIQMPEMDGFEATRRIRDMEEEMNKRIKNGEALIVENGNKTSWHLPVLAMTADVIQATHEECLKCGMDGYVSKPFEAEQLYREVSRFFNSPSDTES
In short: (§1)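 E. coli KMI001 carrying the receptor plasmid was grown in M9 + 0.1% casamino acids at 25 °C, diluted 1:600 and treated with compound (stock solutions 10^-7–5×10^-5 M). Supernatant β-galactosidase was read by 4-methylumbelliferyl galactoside hydrolysis (1 h, 37 °C, Na2CO3 stop). EC50 came from dose-response curves, triplicate means.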

[2] = tested on: Amaranthus caudatus cotyledon/hypocotyl explants; assay: Amaranthus bioassay (betacyanin content); assay type: cell-based, Amaranthus caudatus var. atropurpurea; conditions: at the concentration with highest activity, relative to 10^−5 M kinetin
In short: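 Etiolated A. caudatus cotyledon/hypocotyl explants (72 h seedlings, roots removed) incubated 48 h at 25 °C in darkness on medium with phosphate buffer pH 6.8, tyrosine and test compound. Betacyanin extracted in acetic acid, quantified as A537−A620.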

[3] = tested on: cytokinin-dependent tobacco callus Nicotiana tabacum L. cv. Wisconsin 38; assay: Tobacco callus biotest (plant cell division); assay type: cell-based; conditions: at the concentration with highest activity, relative to 10^−5 M kinetin
recombinant AtCKX2 = target: T2, recombinant AtCKX2 (Arabidopsis thaliana, UniProt Q9FUJ3); assay: Inhibition of cytokinin oxidase/dehydrogenase activity (PMS/MTT microtitre plate assay); assay type: biochemical; conditions: 30 μM iP as substrate, pH 7.4, 37° C.; means of three replicates; read-out: IC50, inhibition of recombinant AtCKX2
T2 sequence (Q9FUJ3 23-501): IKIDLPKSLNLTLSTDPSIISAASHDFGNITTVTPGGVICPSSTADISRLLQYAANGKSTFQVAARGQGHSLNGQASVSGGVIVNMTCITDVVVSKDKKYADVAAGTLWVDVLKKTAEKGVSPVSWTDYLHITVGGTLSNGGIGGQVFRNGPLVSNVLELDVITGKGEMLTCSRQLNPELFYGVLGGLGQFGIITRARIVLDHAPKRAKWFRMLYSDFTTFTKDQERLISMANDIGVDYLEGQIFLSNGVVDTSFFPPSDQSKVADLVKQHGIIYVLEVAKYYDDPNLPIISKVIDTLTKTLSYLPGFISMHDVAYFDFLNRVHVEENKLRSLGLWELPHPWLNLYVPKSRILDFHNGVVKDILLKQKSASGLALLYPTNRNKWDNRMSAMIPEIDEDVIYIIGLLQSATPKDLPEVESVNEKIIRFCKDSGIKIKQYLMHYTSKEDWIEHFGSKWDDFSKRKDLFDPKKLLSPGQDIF
Procedure: IC50 determinations were done using the assay in microtitre plate. Each well contained 100 μL of PMS/MTT [phenazine methosulfate/3-(4,5-dimethylthiazol-2-yl)-2,5-diphenyltetrazolium bromide] reaction mixture (final concentrations: 0.1 M KH2PO4, pH 7.4, 1 mM MTT, 0.2 mM PMS) containing the tested compound (3×10^−7 M-3×10^−4 M) and 30 μM N^6-isopentenyladenine (iP) as a substrate. 100 μL of cell-free growth medium of S. cerevisiae strain 23344c ura^− harboring the plasmid pYES2-AtCKX2 was directly used as a source of AtCKX2. Plates were incubated in the dark for […] at 37° C. and the enzymatic reaction was stopped by 25 μL of 35% acetic acid. The absorbance at 578 nm was measured using spectrophotometer Tecan. Absorbance of the sample without iP was subtracted.
The IC50 value, the compound concentration that inhibits the enzyme activity to 50%, was calculated from the obtained dose response curves. The values shown in Table 9 are means of three replicates and the entire test was repeated at least twice.

CRE1/AHK4 = CRE1/AHK4 (Arabidopsis thaliana, UniProt Q9C5U0); assay: Activation of cytokinin receptors (E. coli KMI001 beta-galactosidase reporter); assay type: cell-based; conditions: 17 h incubation; n.a. means no activation
CRE1/AHK4, sequence (Q9C5U0 whole entry): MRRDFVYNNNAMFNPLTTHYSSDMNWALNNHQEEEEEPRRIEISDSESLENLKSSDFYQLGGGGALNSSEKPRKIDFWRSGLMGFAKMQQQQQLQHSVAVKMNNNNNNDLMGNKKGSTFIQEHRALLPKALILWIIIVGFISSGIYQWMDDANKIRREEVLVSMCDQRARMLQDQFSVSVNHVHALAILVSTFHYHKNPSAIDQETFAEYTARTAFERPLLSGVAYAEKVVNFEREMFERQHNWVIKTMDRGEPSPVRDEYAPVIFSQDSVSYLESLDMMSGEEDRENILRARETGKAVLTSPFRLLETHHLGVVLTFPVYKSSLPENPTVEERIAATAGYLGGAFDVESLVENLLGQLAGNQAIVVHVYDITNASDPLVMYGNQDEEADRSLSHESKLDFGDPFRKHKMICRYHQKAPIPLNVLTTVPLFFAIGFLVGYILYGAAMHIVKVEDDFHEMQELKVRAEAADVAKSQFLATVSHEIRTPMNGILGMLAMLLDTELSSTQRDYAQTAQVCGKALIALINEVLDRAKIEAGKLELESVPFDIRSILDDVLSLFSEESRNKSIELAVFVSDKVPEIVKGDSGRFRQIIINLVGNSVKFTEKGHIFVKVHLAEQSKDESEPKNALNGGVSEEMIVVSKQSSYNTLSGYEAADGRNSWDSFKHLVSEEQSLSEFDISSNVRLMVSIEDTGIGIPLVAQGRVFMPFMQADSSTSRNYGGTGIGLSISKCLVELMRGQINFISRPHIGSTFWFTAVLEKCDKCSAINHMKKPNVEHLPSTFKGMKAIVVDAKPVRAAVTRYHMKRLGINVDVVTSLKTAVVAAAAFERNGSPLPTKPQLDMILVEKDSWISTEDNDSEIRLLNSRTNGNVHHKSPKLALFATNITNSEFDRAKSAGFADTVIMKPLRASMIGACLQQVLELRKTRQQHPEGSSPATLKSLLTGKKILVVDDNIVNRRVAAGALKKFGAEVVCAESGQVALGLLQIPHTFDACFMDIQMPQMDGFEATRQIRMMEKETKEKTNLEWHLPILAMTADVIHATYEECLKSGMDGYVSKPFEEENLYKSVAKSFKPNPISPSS
In short: as §1

[4] = tested on: breast carcinoma cell line MCF-7; assay: Calcein AM cytotoxicity assay; assay type: cell-based, human
Source text: (§2) Absence of toxic effects against mammalian (especially human) cell lines in a wide concentration range is one of the requirements on compounds intended for use in agriculture and medicine. Because toxic compounds negatively influence metabolic processes in cells, many standard cytotoxicity assays are based on measurement of metabolisation rate of various artificial substrates. Resulting product is then quantified e.g. by means of spectrometry. The assays can be easily modified for use in 96-well plates. For evaluation of cytotoxic effect of compounds of this invention, a microtiter assay based on quantification of metabolisation of Calcein AM was used. The assay is widely used in drug screening programs and in chemosensitivity testing. In live cells, Calcein AM is enzymatically hydrolysed and accumulation of resulting calcein is manifested by green fluorescence.
(§3) Mouse cell lines B16-F10 (melanoma) and NIH-3T3 (fibroblasts) were used as well. The cells were maintained in Nunc/Corning 80 cm^2 plastic tissue culture flasks and cultured in cell culture medium (DMEM with 5 g/l glucose, 2 mM glutamine, 100 U/ml penicillin, 100 μg/ml streptomycin, 10% fetal calf serum and sodium bicarbonate).
(§4) The cell suspensions were prepared and diluted according to the particular cell type and the expected target cell density (2.500-30.000 cells per well based on cell growth characteristics) and pippetted (80 μl) into 96-well plates. Inoculates were allowed a pre-incubation period of 24 hours at 37° C. and 5% CO2 for stabilisation. Tested compound was added in total volume of 20 μl of water at time zero. Usually, test compound was evaluated at six 3-fold dilutions. […] All drug concentrations were tested in triplicates. Incubations of cells with the test compounds lasted for 72 hours at 37° C., in 5% CO2 atmosphere and 100% humidity. At the end of incubation period Calcein AM in PBS was added into final concentration of 1 μg/ml. After another 1 hour of incubation fluorescence (FD) was measured with the Labsystem FIA Reader Fluoroscan Ascent (UK). Growth inhibition (GI) was estimated using the following equitation: GI=(mean FDdrug exposed wells−mean FDblank)/(mean FDcontrol wells−mean FDblank)×100%.

[5] = tested on: osteosarcoma cell line HOS; assay: Calcein AM cytotoxicity assay; assay type: cell-based, human; conditions: Homo sapiens, 72 hours
Source text: as §2
as §3, with “Following human cell lines were used for routine screening of the compounds: T-lymphoblastic leukemia cell line CEM, promyelocytic leukemia cell line HL-60, erytroid leukemia cell line K-562, breast carcinoma cell line MCF-7, osteosarcoma cell line HOS and melanoma cell line G-361. Mouse” for “Mouse”
(§5) The cell suspensions were prepared and diluted according to the particular cell type and the expected target cell density (2.500-30.000 cells per well based on cell growth characteristics) and pippetted (80 μl) into 96-well plates. Inoculates were allowed a pre-incubation period of 24 hours at 37° C. and 5% CO2 for stabilisation. Tested compound was added in total volume of 20 μl of water at time zero. Usually, test compound was evaluated at six 3-fold dilutions. In routine testing, the highest concentration tested was 166.6 μM. All drug concentrations were tested in triplicates. Incubations of cells with the test compounds lasted for 72 hours at 37° C., in 5% CO2 atmosphere and 100% humidity. At the end of incubation period Calcein AM in PBS was added into final concentration of 1 μg/ml. After another 1 hour of incubation fluorescence (FD) was measured with the Labsystem FIA Reader Fluoroscan Ascent (UK). Growth inhibition (GI) was estimated using the following equitation: GI=(mean FDdrug exposed wells−mean FDblank)/(mean FDcontrol wells−mean FDblank)×100%. The GI50 value, the drug concentration causing 50% reduction of Calcein AM conversion, was calculated from the obtained dose response curves.

NIH-3T3 (fibroblasts) = assay: Calcein AM cytotoxicity assay; assay type: cell-based, Mouse
Source text: as §2, §3, §4

[6] = tested on: promyelocytic leukemia cell line HL-60; assay: Calcein AM cytotoxicity assay; assay type: cell-based, human; conditions: read-out: GI50 HL60
Source text: as §2, §3, §4

[7] = tested on: T-lymphoblastic leukemia cell line CEM; assay: Calcein AM cytotoxicity assay; assay type: cell-based, human; conditions: 72 hours
Source text: as §2, §3, §4

[8] = tested on: erytroid leukemia cell line K-562; assay: Calcein AM cytotoxicity assay; assay type: cell-based, human; conditions: Homo sapiens, K562, 72 hours
Source text: as §2
as §3, with “Following human cell lines were used for routine screening of the compounds: T-lymphoblastic leukemia cell line CEM, promyelocytic leukemia cell line HL-60, erytroid leukemia cell line K-562, breast carcinoma cell line MCF-7, osteosarcoma cell line HOS and melanoma cell line G-361. Mouse” for “Mouse”
as §5

[9] = tested on: CKX1 overproducing Arabidopsis seedlings; assay: CKX1 overproducing Arabidopsis seedlings grown in vitro on MS medium, phenotype reversion; assay type: in vivo; conditions: in vitro on MS medium containing 0.1 μM compound

SMILES: COc1cc(CNc2nc(Cl)nc3nc[nH]c23)cc(OC)c1 [2-chloro-6-(3,5-dimethoxybenzylamino)purine]
IC50 [1]: 11 µM
Effect (anti-inflammatory activity) [1]: Inhibition

SMILES: Fc1nc(Nc2ccc(Cl)cc2)c2nc[nH]c2n1 [Compound 43]
Activity (%) [10^−5 mol · l^−1 K = 100%] [2]: 102.6%
Activity (%) [10^−5 mol · l^−1 K = 100%] [3]: 130%
IC50 (recombinant AtCKX2): 27 µM
EC50 (CRE1/AHK4): 39.8 µM
EC50 (AHK3): 27 µM

SMILES: Nc1nc(Nc2ccc(O)cc2)c2nc[nH]c2n1 [Compound 73]
GI50 ([4]; Homo sapiens, MCF7, 72 hours): > 167 µM
GI50 [5]: > 167 µM
GI50 (NIH-3T3 (fibroblasts); Mus musculus, NIH3T3, 72 hours): > 167 µM
EC50 (CRE1/AHK4): > 50 µM
EC50 (AHK3): > 50 µM

SMILES: Nc1ncnc2nc[nH]c12 [adenine, reference compound]
GI50 ([4]; Homo sapiens, MCF7, 72 hours): > 167 µM
GI50 ([6]; Homo sapiens, HL-60, 72 hours): > 167 µM
GI50 ([7]; Homo sapiens): > 167 µM
GI50 [8]: > 167 µM
GI50 (NIH-3T3 (fibroblasts); Mus musculus, NIH3T3, 72 hours): > 167 µM

SMILES: c1ccc(CNc2ncnc3nc[nH]c23)cc1 [benzylamino, 6-benzylaminopurine, reference compound]
GI50 ([6]; Homo sapiens, HL-60, 72 hours): > 167 µM
GI50 ([7]; Homo sapiens): > 167 µM
GI50 [5]: > 167 µM
GI50 (NIH-3T3 (fibroblasts); Mus musculus, NIH3T3, 72 hours): > 167 µM
reversion of WT phenotype [9]: appeared only when the compound 12 was present

SMILES: C/C(=C\CNc1ncnc2nc[nH]c12)CO [trans-zeatin, reference compound]
GI50 ([4]; 72 hours, read-out: GI50 MCF7): > 167 µM
GI50 ([6]; 72 hours): > 167 µM
GI50 [7]: > 167 µM
GI50 (NIH-3T3 (fibroblasts); 72 hours): > 167 µM
EC50 (CRE1/AHK4): 0.9 µM
EC50 (AHK3): 2.1 µM

The next lines start with results.

IC50 [1]: 7 µM
SMILES: COc1cccc(CNc2nc(Cl)nc3nc[nH]c23)c1 [2-chloro-6-(3-methoxybenzylamino)purine]
Effect (anti-inflammatory activity) [1]: Inhibition

IC50 [1]: 25 µM
EC50 (AHK3): 31.7 µM
SMILES: Oc1ccccc1Nc1nc(Cl)nc2nc[nH]c12 [Compound 8, 2-chloro-6-(2-hydroxyanilino)purine]
Effect (anti-inflammatory activity) [1]: Inhibition

IC50 (recombinant AtCKX2): 22.1 µM
EC50 (CRE1/AHK4): > 50 µM
EC50 (AHK3): 42.1 µM
SMILES: Fc1cccc(Nc2nc(F)nc3[nH]cnc23)c1 [Compound 45]
Activity (%) [10^−5 mol · l^−1 K = 100%] [2]: 105.1%
Activity (%) [10^−5 mol · l^−1 K = 100%] [3]: 127.9%
